Laboratory results reported in publication PMC4167698, “Fatty Acid Esters of Phloridzin Induce Apoptosis of Human Liver Cancer Cells through Altered Gene Expression” (PLoS ONE, 2014).

Tests used:
[1] = tested on: normal human hepatocytes (HP-F); assay: MTS cell viability assay, normal human hepatocytes; type: cell-based; settings: 24 h
Protocol: (§1) Cell viability was determined by using the MTS assay. In brief, HepG2 cells (5×10^3 cells/100 µL/well), MDA-MB-231 (5×10^3 cells/100 µL/well), THP-1 (25×10^3/100 µL/well), normal human and rat hepatocytes (1×10^4 cells/100 µL/well) were plated in triplicate, in a 96 well sterile flat bottom tissue culture plates. […] Thereby, cells were exposed to various concentrations (0.1, 1, 10, 25, 50, 75, 100 µM) of each treatment. Controls consist of cells with media containing DMSO (<0.5%), test blank wells contained the test compound in media with no cells and blank wells contained media with no cells. After additional 3, 6, 12, 18 or 24 h, 20 µL of the MTS reagent in combination with the electron coupling agent, phenazine methosulfate were added to the wells and cells were incubated in a humidified incubator for 3 h. Absorbance at 490 nm (OD490) was measured by using a Flurostar Optima microplate reader (BMG Labtech, Cary, NC, USA) to obtain the number of viable cells relative to the control population. Percentage of viability of the test compound treated cells are expressed as percentage compared to control (<0.5% DMSO). […] The selective index (SI) of the fatty acid esters of phloridzin is defined as the ratio of cytotoxicity (EC50 values) on normal HP-F cells to solid cancer HepG2, MDA-MB-231 cells (SI = EC50 on HP-F cells/EC50 on solid cancer cells). Samples with SI values greater than three were considered to have high selectivity towards cancer cells.

[2] = tested on: HepG2 cells; assay: Human cancer drug targets RT2 profiler PCR array; type: cell-based
Protocol: Total RNA extraction was performed using Arum Total RNA minikit (Bio-Rad, Hercules, CA, USA). RNA concentration and purity was determined by measuring the absorbance using a NanoDrop (NanoDrop Technologies, Wilmington, DE, USA). RNA integrity was assessed by formaldehyde agarose gel electrophoresis. RNA (400 ng) was used to synthesize cDNA using RT^2 First Strand kit (SABiosciences, Frederick, MD, USA). RT^2 RNA QC PCR arrays (SABiosciences, Frederick, MD, USA) was used to assess the quality of cDNA samples before characterization with the human cancer drug targets RT^2 profiler PCR array (SABiosciences, Frederick, MD, USA). Gene expression profiles of 84 genes were investigated using the human cancer drug targets RT^2 profiler PCR array (PAHS-507ZD) on a Bio-Rad CFX Connect (Bio-Rad, Hercules, CA, USA) using RT^2 real-time SYBR green PCR master mix (SABiosciences, Frederick, MD, USA). […] Reproducibility was maintained by using three biological replicates from three individual experiments.

[3] = tested on: MDA-MB-231 cells; assay: MTS cell proliferation assay, MDA-MB-231; type: cell-based, human; settings: for EC50: MTS
Protocol: as §1

[4] = tested on: THP-1 cells; assay: MTS cell proliferation assay, THP-1; type: cell-based, human; settings: for EC50: MTS
Protocol: as §1

[5] = tested on: HepG2 cells; assay: MTS cell proliferation assay, HepG2; type: cell-based, human; settings: for EC50: MTS
Protocol: as §1

[6] = 84-gene array, vs vehicle control

## CC/C=C\C/C=C\C/C=C\C/C=C\C/C=C\C/C=C\CCC(=O)OC[C@H]1O[C@@H](Oc2cc(O)cc(O)c2C(=O)CCc2ccc(O)cc2)[C@H](O)[C@@H](O)[C@@H]1O [Pz-DHA ester, DHA ester of Pz]
[1]
  EC50: > 100 µM
[2]; [6]
  number of genes down-regulated (more than two-fold): 41 genes
  number of genes unaffected: 35 genes
  number of genes up-regulated (more than two-fold): 8 genes
[2]; Apoptosis gene, RT-PCR array
  Fold change of gene expression relative to control: BCL2: −2.8 fold
[2]; RT-PCR array
  Fold change of gene expression relative to control: AKT1: −6.1 fold
  Fold change of gene expression relative to control: AKT2: −2.8 fold
  Fold change of gene expression relative to control: AURKB: −2.0 fold
  Fold change of gene expression relative to control: CDK2: −2.0 fold
  Fold change of gene expression relative to control: CDK9: −2.1 fold
  Fold change of gene expression relative to control: EGFR: −8.9 fold
  Fold change of gene expression relative to control: ERBB2: −5.7 fold
  Fold change of gene expression relative to control: ERBB3: −6.1 fold
  Fold change of gene expression relative to control: FLT1: 16.5 fold
  Fold change of gene expression relative to control: GRB2: −8.6 fold
  Fold change of gene expression relative to control: HDAC1: −2.6 fold
  Fold change of gene expression relative to control: HDAC4: −4.1 fold
  Fold change of gene expression relative to control: HDAC6: −5.4 fold
  Fold change of gene expression relative to control: HDAC7: −6.0 fold
  Fold change of gene expression relative to control: HDAC11: −20.1 fold
  Fold change of gene expression relative to control: IGF1R: −4.2 fold
  Fold change of gene expression relative to control: IGF2: −2.3 fold
  Fold change of gene expression relative to control: IRF5: −2.3 fold
  Fold change of gene expression relative to control: KDR: −2.8 fold
  Fold change of gene expression relative to control: KRAS: −4.0 fold
  Fold change of gene expression relative to control: MDM4: −2.1 fold
  Fold change of gene expression relative to control: NF−κB: −4.3 fold
  Fold change of gene expression relative to control: PARP1: −5.4 fold
  Fold change of gene expression relative to control: PDGFRA: −2.8 fold
  Fold change of gene expression relative to control: PDGFRB: −16.8 fold
  Fold change of gene expression relative to control: PIK3C2A: −2.2 fold
  Fold change of gene expression relative to control: PLK1: −2.9 fold
  Fold change of gene expression relative to control: PRKCA: −8.1 fold
  Fold change of gene expression relative to control: PRKCD: −2.1 fold
  Fold change of gene expression relative to control: PRKCE: −5.6 fold
  Fold change of gene expression relative to control: TERT: −5.6 fold
  Fold change of gene expression relative to control: TOP2A: −2.7 fold
  Fold change of gene expression relative to control: TOP2B: −2.3 fold
  Fold change of gene expression relative to control: TP53: −7.4 fold
  Fold change of gene expression relative to control: mTOR: −3.6 fold
[2]; RT-PCR array, listed as Phloridzin-DHA
  Fold change of gene expression relative to control: FLT1: +16.5 fold
[3]; EC50 of HP-F cells/EC50 on MDA-MB-231, 24 h
  SI (selective index): 10.5
[3]; MDA-MB-231, 3 h
  EC50: 132 ± 9.9 µM
[3]; MDA-MB-231, 6 h
  EC50: 83.7 ± 7.5 µM
[3]; MDA-MB-231, 12 h
  EC50: 70.2 ± 6.1 µM
[3]; MDA-MB-231, 18 h
  EC50: 62.6 ± 5.1 µM
[3]; MDA-MB-231, 24 h
  EC50: 55.5 ± 4.5 µM
[4]; EC50 of HP-F cells/EC50 on THP-1, 24 h
  SI (selective index): 21.3
[4]; THP-1, 3 h
  EC50: 65.8 ± 5.2 µM
[4]; THP-1, 6 h
  EC50: 49.5 ± 3.8 µM
[4]; THP-1, 12 h
  EC50: 42.7 ± 3 µM
[4]; THP-1, 18 h
  EC50: 35.8 ± 2.8 µM
[4]; THP-1, 24 h
  EC50: 27.3 ± 1.2 µM
[5]; EC50 of HP-F cells/EC50 on HepG2, 24 h
  SI (selective index): 11.2
[5]; HepG2, 3 h
  EC50: 76.9 ± 5.8 µM
[5]; HepG2, 6 h
  EC50: 64.4 ± 5.9 µM
[5]; HepG2, 12 h
  EC50: 56.2 ± 4.9 µM
[5]; HepG2, 18 h
  EC50: 54.2 ± 3.9 µM
[5]; HepG2, 24 h
  EC50: 51.9 ± 3.8 µM

## CCCCCCCCCCCCCCCCCC(=O)O [Stearic acid, stearic acid]
[1]; Hepatocyte
  EC50: > 100 µM
[3]; Homo sapiens, MDA-MB-231, 3 h
  EC50: > 100 µM
[3]; Homo sapiens, MDA-MB-231, 6 h
  EC50: > 100 µM
[3]; Homo sapiens, MDA-MB-231, 12 h
  EC50: > 100 µM
[3]; Homo sapiens, MDA-MB-231, 18 h
  EC50: > 100 µM
[3]; Homo sapiens, MDA-MB-231, 24 h
  EC50: > 100 µM
[4]; Homo sapiens, THP-1, 3 h
  EC50: > 100 µM
[4]; Homo sapiens, THP-1, 6 h
  EC50: > 100 µM
[4]; Homo sapiens, THP-1, 12 h
  EC50: > 100 µM
[4]; Homo sapiens, THP-1, 18 h
  EC50: > 100 µM
[4]; Homo sapiens, THP-1, 24 h
  EC50: > 100 µM
[5]; Homo sapiens, HepG2, 3 h
  EC50: > 100 µM
[5]; Homo sapiens, HepG2, 6 h
  EC50: > 100 µM
[5]; Homo sapiens, HepG2, 12 h
  EC50: > 100 µM
[5]; Homo sapiens, HepG2, 18 h
  EC50: > 100 µM
[5]; Homo sapiens, HepG2, 24 h
  EC50: > 100 µM

## CC/C=C\C/C=C\C/C=C\CCCCCCCC(=O)O [α-Linolenic acid, α-linolenic acid]
[1]
  EC50: > 100 µM
[3]; MDA-MB-231, 3 h
  EC50: > 100 µM
[3]; MDA-MB-231, 6 h
  EC50: > 100 µM
[3]; MDA-MB-231, 12 h
  EC50: > 100 µM
[3]; MDA-MB-231, 18 h
  EC50: > 100 µM
[3]; MDA-MB-231, 24 h
  EC50: > 100 µM
[4]; THP-1, 3 h
  EC50: > 100 µM
[4]; THP-1, 6 h
  EC50: > 100 µM
[4]; THP-1, 12 h
  EC50: > 100 µM
[4]; THP-1, 18 h
  EC50: > 100 µM
[4]; THP-1, 24 h
  EC50: > 100 µM
[5]; HepG2, 3 h
  EC50: > 100 µM
[5]; HepG2, 6 h
  EC50: > 100 µM
[5]; HepG2, 12 h
  EC50: > 100 µM
[5]; HepG2, 18 h
  EC50: > 100 µM
[5]; HepG2, 24 h
  EC50: > 100 µM
